Literature values as cited in patent US6576227B1, “Peroxidase-activating oral compositions” (Oraceutical Innovative Properties, LLC, priority 1995, dated 2003).

Experiments:
cellular DNA = conditions: elevated concentrations (greater than about 0.1 percent or about 29 millimoles per liter)
[1] = 20° C.

SMILES: OO [hydrogen peroxide]
- mutagenicity and cellular DNA damage (cellular DNA): mutagenic

SMILES: NC(N)=O.OO [Carbamide peroxide]
- water solubility [1]: 800 grams per liter
- concentration of saturated solution ([1]; water): 44.4%
- pH upon dissolution, 1% solution (1% solution in water): approximately 4.05
- pH, saturated solution (saturated solution in water): approximately 3.40
